Measurements reported in patent publication US4762781A, “Antibodies capable of specifically identifying haptenic groups, their preparation and their use and to new antigens permitting their preparation” (priority 1983, dated 1988).
“Also recorded” adds a separate entry of the source. Where two headings read alike, the source gives them in different places.

How the values were obtained:
anti-DA antibodies = test: Equilibrium dialysis competition, displacement of (3H) DA-G-ALM; assay type: binding, rabbit; conditions: for KA: conjugates, cross-reactivity with anti-DA antibodies; for KA / affinity constant KA: 1200 min; for affinity constant KA: displacement of (3H) DA-G-ALM from anti-DA antibodies
anti-TA antibodies = test: Equilibrium dialysis competition, displacement of (3H)-TA-G-ALM; assay type: binding, rabbit; conditions: for affinity constant KA: displacement of (3H)-TA-G-ALM from anti-TA antibodies; for affinity constant KA / KA: 1200 min; for KA: conjugates, slight immunoreactivity with anti-TA antibodies
anti-GABA antiserum = test: Equilibrium dialysis competition with tracer (3H) GABA-GA-PPL; assay type: binding, rabbit; conditions: for cross-reactivity, times less than that of the GABA-GA-PPL conjugate: anti-GABA antiserum
Protocol: The antibody solution is placed on one side of the membrane. Each conjugate of catecholamine is mixed with an equal volume of radioactive ligand before being placed on the other side of the membrane. The incubation solution of each antiserum is a citrate buffer 0.1M (pH 6.2) containing 1 mg/ml of bovine serum albumin (BSA) and 10 mM of sodium azide (N3 Na). The final volume is 2×150 microliters. This is left to incubate at 4° C. for 20 hours. Next the beta radioactivity in a sample of 100 microliters taken from each side of the membrane is counted.
Studies of specificity were conducted using the method of equilibrium dialysis, by competition of the tracer (^3 H) GABA-GA-PPL and the various conjugated analogues GABA-GA-PPL, glycine-GA-PPL, etc.

Anti-NA antibodies = assay type: binding, rabbit
GABA antiserum = test: Immunocytochemical absorption controls of GABA antiserum on rat brain sections; design: species or system rabbit; conditions: absorption with a 10^-3 M solution
Protocol: Rat brains were fixed by perfusion with a 5% solution of glutaraldehyde in a cacodylate buffer, 0.1M, pH 7.5. The brain was cut in slices approximately 4 mm thick and then fixed again for 1.5-2 hours using the same fixative.
Sections of 50 micrometers were incubated with GABA antiserum diluted to 1/1,500. This antiserum was visualized using the peroxidase-antiperoxidasemethod, with diaminobenzidine as the chromogen.

Anti-W antibodies = test: ELISA competition, affinity and specificity of anti-indolamine antibodies; assay type: binding, rabbit
Protocol: This study was performed using an ELISA test (Enzyme-linked immunosorbent assay). The plates were coated with a solution of BSA-G-indolamine conjugate and then saturated with bovine serum. they were then placed in contact with the antibody solution under study, and then with anti-(rabbitgammaglobulin) goat antibodies conjugated with peroxidate of horseradish.

[1] = concentrations between 10^-9 M and 10^-8 M

For `CNC(=O)[C@H](CCCCNCCCCCNCCc1ccc(O)cc1)NC(C)=O` [TA-G-ALM], the “displacement of (3H) DA-G-ALM / recognition by anti-DA antibodies” value (anti-DA antibodies) was “No displacement; also recorded: do not recognize”, the KA (anti-DA antibodies) was 3.1 × 10^4 1. mol.^-1 and the “affinity constant KA” value (anti-TA antibodies) was 7×10^7 l.mol.^-1.

In the case of `O=C(O)CNCCCCCNCCCC[C@H](NC(=O)[C@H](Cc1ccccc1)NC(=O)[C@@H]1CCCN1)C(=O)O` [glycine conjugate], the “cross-reactivity, times less than that of the GABA-GA-PPL conjugate” value (anti-GABA antiserum) is reported as 795 times.

For `NC[C@H](O)c1ccc(O)c(O)c1` [NA, norepinephrine, reference compound], the “displacement” value (Anti-NA antibodies) was “no displacement”.

For `O=C(O)[C@H](CCCCNCCCCCNCCS(=O)(=O)O)NC(=O)[C@H](Cc1ccccc1)NC(=O)[C@@H]1CCCN1` [taurine conjugate], the “reactivity with anti-GABA antiserum” value (anti-GABA antiserum) was “on the same order or magnitude as with the conjugate of aspartate or glutamate”.

With `CNC(=O)[C@H](CCCCNCCCCCNCC(O)c1ccc(O)cc1)NC(C)=O` (some centres unmarked) [OA--G--ALM] the KA (anti-DA antibodies) was 5 × 10^4 1. mol.^-1 and the KA (anti-TA antibodies) was 5.9 × 10^5 1. mol.^-1.

For `NCCc1ccc(O)c(O)c1` [dopamine, reference compound], the “affinity constant KA” value (anti-DA antibodies) was 6.7×10^3 l.mol.^-1 and the “displacement of (3H) DA-G-ALM by unmodified hapten” value (anti-DA antibodies; even at a concentration of 10^-6 M) was “not capable of displacing”.

For `O=C(O)CCNCCCCCNCCCC[C@H](NC(=O)[C@H](Cc1ccccc1)NC(=O)[C@@H]1CCCN1)C(=O)O` [beta-alanine conjugate], the “cross-reactivity, times less than that of the GABA-GA-PPL conjugate” value (anti-GABA antiserum) was 175 times.

`O=C(O)CCCNCCCCCNCCCC[C@H](NC(=O)[C@H](Cc1ccccc1)NC(=O)[C@@H]1CCCN1)C(=O)O` [GABA--GA--lysine] showed a Kd (anti-GABA antiserum; dissociation constant of the anti-GABA antibodies for the antigen) of 20 nM.

`O=C(O)CC(NCCCCCNCCCC[C@H](NC(=O)[C@H](Cc1ccccc1)NC(=O)[C@@H]1CCCN1)C(=O)O)C(=O)O` (some centres unmarked) [aspartate conjugate] was tested, and the “reactivity with anti-GABA antiserum” value (anti-GABA antiserum; [1]) was “No reactivity”.

In the case of `CNC(=O)[C@H](CCCCNCCCCCNCCc1ccc(O)c(O)c1)NC(C)=O` [DA-G-ALM], the “displacement of (3H) DA-G-ALM / recognition by anti-DA antibodies” value (anti-DA antibodies) is reported as “No displacement”, the “affinity constant KA” value (anti-DA antibodies) is reported as 6.7×10^7 l.mol.^-1 and the “displacement of (3H) DA-G-ALM / recognition by anti-DA antibodies” value (anti-DA antibodies; listed as DA-b-ALM) is reported as “best displacement”. The “displacement of (3H)-TA-G-ALM / recognition by anti-TA antibodies” value (anti-TA antibodies) was “No displacement; also recorded: no affinity” and the “affinity constant KA” value (anti-TA antibodies) was 2.6×10^4 l.mol.^-1.

In the case of `NCCc1ccc(O)cc1` [TA, p-tyramine, reference compound], the “displacement of (3H)-TA-G-ALM / recognition by anti-TA antibodies” value (anti-TA antibodies) is reported as “incapable of displacing” and the “affinity constant KA” value (anti-TA antibodies) is reported as 10^4 l.mol.^-1.

For `CNC(=O)[C@H](CCCCNCCCCCNCC(O)c1ccc(O)c(O)c1)NC(C)=O` (some centres unmarked) [NA-G-ALM], the “reactivity, times lower than that of DA-G-ALM” value (anti-DA antibodies; anti-DA antibodies) was 53 times, the “affinity constant KA” value (anti-DA antibodies) was 5×10^5 l.mol.^-1 and the “displacement” value (Anti-NA antibodies) was “best displacement”. For the same compound, the KA (Anti-NA antibodies; 1200 min) was 3.8e+07 L/mol, the “displacement of (3H)-TA-G-ALM / recognition by anti-TA antibodies” value (anti-TA antibodies) was “No displacement” and the “affinity constant KA” value (anti-TA antibodies) was 1.4×10^4 l.mol.^-1.

For `NCCCC(=O)O` [GABA, gamma-aminobutyric acid, reference compound], the “coloration after absorption of the serum” value (GABA antiserum) was “very great reduction in coloration” and the “displacement of the radioactive ligand (3H) GABA-GA-PPL” value (anti-GABA antiserum; even at a concentration of 10^-5 M) was “incapable of displacing”.

`CNC(=O)[C@H](CCCCNCCCCCN[C@@H](Cc1ccc(O)c(O)c1)C(=O)O)NC(C)=O` [L-DOPA--G--ALM] was tested, and the KA (anti-DA antibodies) was 3.8 × 10^5 1. mol.^-1 and the KA (anti-TA antibodies) was 3.3 × 10^5 1. mol.^-1.

For `N[C@@H](Cc1c[nH]c2ccccc12)C(=O)O` [Tryptophane, L-tryptophane], the “displacement / identification by anti-W antibodies” value (Anti-W antibodies) was “only weakly identified”.

With `O=C(O)CCC(NCCCCCNCCCC[C@H](NC(=O)[C@H](Cc1ccccc1)NC(=O)[C@@H]1CCCN1)C(=O)O)C(=O)O` (some centres unmarked) [glutamate conjugate] the “reactivity with anti-GABA antiserum” value (anti-GABA antiserum; [1]) was “No reactivity”.
